The text below walks through data of ChEMBL document CHEMBL1208667, “Permanent positive charge strongly influences DNA/RNA binding and antiproliferative activity of urea-phenanthridinium conjugates” (Eur J Med Chem, 2010).

Common to all, as to format: functional, cell-based
Assay [1] concerns Caco-2. Nature of the assay: Cytotoxicity against human Caco-2 cells at 100 uM after 72 hrs by MTT assay. (In general: Tetrazolium dyes change colour on reduction, which living cells bring about.)
The subject of assay [2] is Caco-2. Nature of the assay: Cytotoxicity against human Caco-2 cells at 0.1 to 100 uM after 72 hrs by MTT assay.
Another assay deals with MIA PaCa-2. Kind of assay: Cytotoxicity against human MIAPaCa2 cells at 0.1 to 100 uM after 72 hrs by MTT assay.
A further assay deals with HEp-2. Nature of the assay: Cytotoxicity against human Hep2 cells at 0.1 to 100 uM after 72 hrs by MTT assay.
The test system of the next assay is HeLa. Kind of assay: Cytotoxicity against human HeLa cells at 0.1 to 100 uM after 72 hrs by MTT assay.
The test system of another assay is HT-29. Kind of assay: Cytotoxicity against human HT-29 cells at 0.1 to 100 uM after 72 hrs by MTT assay.

Active and inactive are the calls of the source. The rule behind the calls is not given here.

`Cc1nc2ccccc2c2ccc(NC(=O)NCCCCCCCCCNC(=O)Nc3ccc4c(c3)c(C)nc3ccccc34)cc12`: the result with Caco-2 [1], in the assay on Caco-2 [2], with MIA PaCa-2, in the assay with HEp-2, in the assay with HeLa and in the assay on HT-29 was inactive.
`Cc1nc2ccccc2c2ccc(NC(=O)NCCCCCCNC(=O)Nc3ccc4c(c3)c(C)nc3ccccc34)cc12`: the result in the assay with Caco-2 [1] was inactive.
As for `Cc1nc2ccccc2c2ccc(NC(=O)NCCNC(=O)Nc3ccc4c(c3)c(C)nc3ccccc34)cc12`, the result with Caco-2 [1] was inactive.
